Experimental data taken from patent EP0920315B1, “TREATMENT OF UPPER AIRWAY ALLERGIC RESPONSES WITH A COMBINATION OF HISTAMINE RECEPTOR ANTAGONISTS” (SCHERING CORPORATION, priority 1996, dated 1998).
Read-outs that look alike come from different tables or passages of the source.

Legend:
[1] = test system: Adult cats; assay: Nasal airway resistance (NAR) after aerosolized Compound 48/80 in anesthetized cats; assay type: in vivo
Source text: Adult cats are anesthetized with intraperitoneal injections of sodium pentobarbital. The right femoral artery and vein are cannulated for measurement of blood pressure with a pressure transducer, and for the administration of drugs. The animals are paralyzed with intravenous gallamine triethiodide and subsequently mechanically ventilated with room air, using an animal ventilator. After isolation of the cervical […], a cuffed endotracheal tube is advanced rostrally into the posterior nasopharynx and inflated to form an air-tight seal, allowing continuous measurement of pressure changes within the nasal cavity. The right nasal airway is occluded with dental impression compound, and humidified air is passed through the left nasal airway at about 1.7 liters per minute. By means of pressure transducers, nasal airway pressure and insufflation pressure can be derived and electronically recorded.
Nasal airway resistance (NAR) is determined by dividing the pressure within the nasal cavity (expressed in centimeters of water) by the air flow rate (expressed in liters per minute). Measurements with 18 subject animals yield an average baseline NAR of 2.6.
The known histamine releaser "Compound 48/80" (the condensation product of N-methyl-p-methoxyphenethylamine with formaldehyde, sold by Sigma Chemical Company, St. Louis, Missouri, USA), as a 1.0 percent solution in 0.9 percent aqueous saline solution, is aerosolized into the air stream for 2 minutes to induce an increased NAR. This effect is used to study the decongestant effects of various test substances, administered to the animals intravenously 10 minutes prior to the introduction of Compound 48/80. These substances include 0.9 percent aqueous saline (normal saline "Vehicle"), phenylpropanolamine hydrochloride at 1.0 mg/Kg of the free drug, thioperamide maleate at 10 mg/Kg of the free drug and chlorpheniramine maleate at 0.8 mg/Kg of the free drug, all of the drug compounds being in solution in 0.9 percent aqueous saline.
The experiment of the preceding example is repeated, but the intravenous drugs are varying amounts of thioperamide (administered as the maleate), in solution together with a constant 0.8 mg/Kg of chlorpheniramine ("CPA," administered as the maleate).
The experiment of preceding Example 1 is repeated, but the intravenous drug administered is clobenpropit in varying amounts, either alone or in solution together with a constant 0.8 mg/Kg of chlorpheniramine ("CPA," administered as the maleate).
To test the statement in U.S. Patent 5,217,986 that verongamine itself has decongestant activity, an experiment similar to that of preceding Example 1, but with a different vehicle, is conducted. The following results are obtained:
The experiment of preceding Example 3 is conducted, using loratadine as the antihistaminic compound at 3 mg/Kg, administered in a solution ("Vehicle") which is 30 percent Dimethylsulfoxide, 40 percent Ethanol and 30 percent normal saline, and using thioperamide as the H3 receptor antagonist at 10 mg/Kg.

[2] = target: T1, histamine H3 receptor (Cavia porcellus, UniProt Q9JI35); assay: Guinea pig brain membrane binding assay (displacement of radiolabeled N-alpha-methylhistamine, Korte et al.)
T1 construct: determined by a guinea pig brain membrane assay; from tissue; host or cells: guinea pig brain membranes
T1 sequence (Q9JI35 whole entry): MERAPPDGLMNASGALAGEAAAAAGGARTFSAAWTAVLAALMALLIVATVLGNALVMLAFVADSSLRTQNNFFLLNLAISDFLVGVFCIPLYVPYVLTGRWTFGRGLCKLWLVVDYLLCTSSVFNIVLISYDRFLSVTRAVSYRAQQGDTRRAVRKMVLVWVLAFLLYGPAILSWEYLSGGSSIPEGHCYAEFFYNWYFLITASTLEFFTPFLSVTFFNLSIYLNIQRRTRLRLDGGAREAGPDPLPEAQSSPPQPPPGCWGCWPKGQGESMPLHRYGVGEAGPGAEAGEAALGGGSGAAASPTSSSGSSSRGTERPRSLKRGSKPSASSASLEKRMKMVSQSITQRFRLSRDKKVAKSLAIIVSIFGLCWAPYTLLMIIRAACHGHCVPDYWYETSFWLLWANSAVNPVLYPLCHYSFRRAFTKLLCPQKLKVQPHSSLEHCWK
Source text: A particularly useful screening assay measures binding to sites in guinea pig brain membranes. This test is described in detail by Korte et al., "Characterization and Tissue Distribution of H3 Histamine Receptors in Guinea Pigs by N^α -Methylhistamine," in Biochemical and Biophysical Research Communications, Vol. 168, pages 979-986 (1990), and quantifies the displacement of bound radiolabeled N" - methylhistamine from tissues by candidate compounds. Results are expressed as "Ki" values, in nanoMolar (nM) units, which values can be considered as being dissociation constants for the H3 antagonist on the H3 receptor system, or an index of antagonist affinity for the receptor. The present inventors have evidence that decongestant activity in their invention for a given H3 antagonist concentration can be predicted to increase as the Ki value obtained from the assay for an antagonist decreases. In general, Ki values less than about 200 nM are considered necessary for an agent to be useful as an H3 antagonist in the invention.
The affinity of various histamine H3 receptor antagonists for binding sites is determined by a guinea pig brain membrane assay, according to the procedure of Korte et al., Biochemical and Biophysical Research Communications, Vol. 168, pages 979-986 (1990).

[3] = Example 1, i.v. 10 minutes prior to Compound 48/80, single drugs in 0.9 percent saline: thioperamide 10 mg/Kg, chlorpheniramine 0.8 mg/Kg, phenylpropanolamine 1.0 mg/Kg, NAR = cm of water / liters per minute, Vehicle 9.1

SMILES | NAR [1, 3] | Ki [2] | further results
CC(N)C(O)c1ccccc1 (stereo not drawn) [Phenylpropanolamine, phenylpropanolamine] | 2.9 |  | 
NC(=NCc1ccc(Cl)cc1)SCCCc1cnc[nH]1 [Clobenpropit, clobenpropit] |  | 0.1 nM | NAR ([1]; Example 3, Clobenpropit 1.0 mg/Kg alone i.v., Vehicle 9.1): 8.5
COc1ccc(C/C(=N\O)C(=O)NCCc2c[nH]cn2)cc1Br [Verongamine, verongamine] |  |  | NAR ([1]; Example 5, Verongamine 10 mg/Kg, different vehicle, Vehicle 7.8): 7.3; Ki ([2]; guinea pig brain membranes, read-out: Ki): 280 nM
CCOC(=O)N1CCC(=C2c3ccc(Cl)cc3CCc3cccnc32)CC1 [Loratadine, loratadine] |  |  | NAR ([1]; Example 6, loratadine 3 mg/Kg, thioperamide 10 mg/Kg, vehicle 30 percent Dimethylsulfoxide, 40 percent Ethanol, 30 percent normal saline, Vehicle 12.6): 10.2
CN(C)CCC(c1ccc(Cl)cc1)c1ccccn1 (stereo not drawn) [Chlorpheniramine, chlorpheniramine] | 6.0 |  | 
S=C(NC1CCCCC1)N1CCC(c2cnc[nH]2)CC1 [Thioperamide, thioperamide] | 6.7 | 12 nM | 
